Experimental data reported in US9504756B2, “Self-stabilizing linker conjugates” (priority 2012, dated 2016).

Test: Thiosuccinimide ring hydrolysis of IgG1 conjugates monitored by electrospray mass spectrometry
Format: physicochemical
Settings: conjugated to reduced human IgG1; pH 7.4, 22° C.
Excerpt: The hydrolysis reaction rates of maleimido drug linkers following conjugation to antibody cysteines can be determined by mass spectrometry, as the hydrolyzed product has a molecular weight 18 daltons greater than the unhydrolyzed conjugate. Reduction of the interchain disulfides of a human IgG1 creates a single reduced cysteine on the light chain and three reduced cysteines on the heavy chain. The self-stabilizing maleimide drug-linker can then be conjugated to the reduced antibody at pH 7.4 and 22° C. and introduced to a high-resolution electrospray mass spectrometer via a reversed-phase HPLC column which separates the conjugated light and heavy chains. The masses of the conjugated light and heavy chains can thus be measured, and the peak intensities determined by standard mass spectrometry data processing software (e.g., MassLynx). By performing a series of injections over time, the disappearance of the peak corresponding to the mass of the original, unhydrolyzed conjugate and the appearance of the peak corresponding to the mass of the hydrolyzed conjugate can be monitored, the intensities of the peaks determined, and the percentage of hydrolyzed conjugate calculated at each timepoint. By plotting the hydrolysis percentage versus time, a curve is generated (e.g., using PRISM) which can be fit to a standard equation for exponential phenomena which includes a parameter for t1/2. […]

diaminopropionyl maleimide
time for hydrolysis reaction approaching 100% completion: about 2 hours
